Here are results for two substances from US20130022590A1, “Compositions Comprising Zinc Finger Domains and Uses Therefor” (priority 2009, published 2013).

Experiment [1] deals with ssRNA oligonucleotide containing a single AGGUAA site (GCAACCAGGUAAAGUCU, SEQ ID NO: 28). Put plainly: Fluorescence anisotropy titration, single-site ssRNA. As to conditions: GST fusions; ssRNA with 5′ fluorescein tag and a single AGGUAA site; 25° C. The format is binding. As to the method:
(§1) Fluorescence Anisotropy titrations e.g., as shown in FIGS. 1D-F, 8 and 35, were carried out using standard protocols. In brief, 5′-Fluorescein-labeled RNA oligonucleotides were quantified by A260, correcting for fluorescein absorbance by using A493. For single-site experiments, the sequence GCAACCAGGUAAAGUCU (SEQ ID NO: 28), or single base mutants thereof, was used. For double-site experiments, two AGGUAA sites were separated by different length sequences as indicated, and the total oligonucleotide lengths were kept constant by the symmetrical addition of adenines to each end. […] Protein was titrated into this starting solution and anisotropy values measured on a Cary Eclipse fluorescence spectrophotometer fitted with manual polarizer and long-pass filters set to 475 and 515 nm for excitation and emission, respectively. […] Association constants were determined by nonlinear least squares regression analysis using a 1:1 binding model.
Constructs of the two individual domains, F1 (FIG. 2, residues 1-45) and F2 (FIG. 2, residues 65-95), were cloned expressed and purified as GST fusions described in section 1.2 above, and tested their ability to bind ssRNA by fluorescence anisotropy as described in section 1.5 above, using a ssRNA oligonucleotide bearing a 5′ fluorescein tag and containing a single AGGUAA site.
A general note: Fluorescence polarisation rises when a labelled molecule tumbles more slowly, as on binding a larger partner.

For experiment [2], the system named is AGAUAA ssRNA. Put plainly: Fluorescence anisotropy binding assay, AGAUAA substrate. To be noted: FIG. 19 and FIG. 20. As to the method: as §1
To determine whether changing arginine-82 (R82) would affect the binding preference of ZRANB2-F2 from GGU to GAU, the point mutation R82Q in ZNF 2 of ZRANB2 was made and the ability of both the wild type (W) protein and the R82Q mutant to bind to AGGUAA and AGAUAA was assessed by fluorescence anisotropy binding assays as described previously in Example 1.

Experiment [3] relates to short (6 or 10 nt) RNA oligonucleotides containing a single AGGUAA motif. The experiment in a line: NMR chemical-shift perturbation (15N-HSQC) RNA titration. The class given is binding. As to conditions: 15N-labeled F2. The procedure: In brief, F2 and F12 were dialysed into 25 mM potassium phosphate (pH 7.0), 25 mM NaCl, and 0.5 mM DTT and concentrated to 0.4-1 mM. All spectra were recorded on a Bruker Avance 600 spectrometer equipped with a cryoprobe. 1H, 15N, and 13C assignments were obtained from HNCACB, CB-CA(CO)NH, HCCH-TOCSY, NOESY, and TOCSY spectra acquired at 2° C., 5° C., or 25° C. Dihedral angle restraints were obtained by analysis of an HNHA spectrum as previously described in Vuister G. W. and Bax A. 1993 J Am Chem Soc 115: 7772-7777. NMR data were processed by using XWINNMR/Topspin (Bruker) and analyzed with SPARKY (T. D. Goddard and D. G. Kneller, University of California, San Francisco). The structure of F2 was calculated from NOE and Ø angle constraints (e.g., FIGS. 5 and 9C) by using a protocol as described in Plambeck C. A., et al., 2003 J Biol Chem 278: 22805-22811.
For RNA titrations, deprotected RNA oligonucleotides i.e., having the sequence AGGUAA, CCAGGUAAAG (SEQ ID NO: 25), or AGGUAAAGGUAA (SEQ ID NO: 26) and the appropriate protein were dialyzed into 10 mM Mops (pH 7.2) and 0.5 mM DTT. Protein and RNA concentrations were calculated from A280 and A260, respectively. Final concentrations of complexes after titrations were typically approximately 0.1-0.5 mM. Assignments of the F2:RNA complex (1:1 or 1:1.2 molar ratio) were made at 25° C. as described above. […]

For “F1: F1 zinc finger domain (residues 1-45 of human ZRANB2) (MSTKNFRVSDGDWICPDKKCGNVNFARRTSCNRCGREKTTEAKMM; F1 zinc finger domain GST fusion in some uses; UniProt O95218 1-45, looked up, fragment)”, the association constant in experiment [1] is 3e+06 M⁻¹.

“F2: F2 zinc finger domain (residues 65-95 of human ZRANB2), wild type (SANDWQCKTCSNVNWARRSECNMCNTPKYAK; F2 zinc finger domain GST fusion in some uses; UniProt O95218 65-95, looked up, fragment)” came in with an association constant in experiment [1] of 1e+06 M⁻¹. In addition, the “binding affinity to guanine base relative to adenine base at position 3 (AGGUAA vs AGAUAA)” value in experiment [2] is reported as “about 4 fold”. The “complex formed on RNA titration” value in experiment [3] was “well-defined 1:1 complex”.
